Reference: patent US20090269281A1, “Calcium/Calmodulin-Dependent Protein Kinase Kinase as a Control Point for Cardiac Hypertrophy” (University of North Texas Health Science Center at Fort …, priority 2007, published 2009)
Entries after “also recorded” stand apart in the source; their conditions may differ.

Key:
[1] = tested on: ANF, SkA and MEF2 reporters; assay: UII-stimulated ANF, SkA and MEF2 luciferase reporter assay in cardiomyocytes; format: cell-based, rat; settings: AdUIIR-infected cardiomyocytes; inhibitor 1 h prior to UII 100 nM; STO-609 250 ng/mL, SB203580 10 μM, U0126 10 μM, AKTi 5 μM
Source text: (§1) Cell Culture and Treatments. […] Plasmids and Adenoviral Constructs.
Transient Transfection and Luciferase Assay.

[2] = tested on: HDAC5/14-3-3β association; assay: Immunoprecipitation of 14-3-3β and detection of bound HDAC5 in cardiomyocytes; format: cell-based, rat; settings: AdUIIR-infected cardiomyocytes; inhibitor 1 h prior to UII, 60 min
Protocol: as §1
For immunoprecipitation studies, Cardiomyocytes were cultured in 100-mm as described in the previous section. 24 h post-plating, cells were treated with UII and various pharmacological inhibitors as indictated. Following treatment, 14-3-3β was immunoprecipitated from whole cell lysate using a commercially available antibody (Abcam) and a protein G immunoprecipitation kit (IP50 Kit, Sigma, following manufacturer's protocol). HDAC5 was detected using a commercially-available antibody (Cell Signaling Technologies, Inc.).
UII stimulation induces association of HDAC5 with 14-3-3β in a CaMKK dependent manner. The activity of MEF2 is controlled, in part, by its association with class II HDACs in the nucleus. Class II HDACs repress the activity of MEF2-sensitive promoters by local deacetylation of nucleosomal histones causing the condensation of chromatin. The repressive influence of HDACs on MEF2 can be relieved by CaMK-dependent phosphorylation of HDACs, which results in their dissociation from MEF2. The dissociation of HDACs from MEF2 is accompanied by 14-3-3-mediated nuclear export of the HDACs. We have shown that UII stimulates the activity of MEF2. Next, to determine whether UII stimulates HDAC5 association with 14-3-3β, AdUIIR-infected cardiomyocytes were treated with UII for various times up to 60 min, and 14-3-3β was pulled down from the whole cell lysate by using an antibody specific for 14-3-3β and protein G agarose. HDAC5 was detected using a specific antibody.

[3] = tested on: ANF, SkA and MEF2 reporters; settings: cardiomyocytes co-transfected with CaMKI; SB203580 10 μM or U0126 10 μM
Protocol: Cell Culture and Treatments. Cardiomyocytes were isolated from 2-4 day old Sprague-Dawley rats using the neonatal cardiomyocyte isolation system (Worthington Biolabs) based on a previously described protocol (45). Cells were plated in medium 199 supplemented with 10% fetal bovine serum (FBS, Atlanta Biologicals) and gentamycin (Fisher). Cells were maintained in medium 199 supplemented with 1.0% FBS and gentamycin. Prior to any treatment, cardiomyocyte cultures were incubated in medium 199 containing 0.2% serum for 24 hours. […] Cells were incubated in medium 199 containing 0.2% FBS prior to stimulation with the indicated reagents for reporter assays, RT-PCR, western blotting and immunoprecipitation.
Transient Transfection and Luciferase Assay. For transfections, cardiomyocytes were cultured in 12-well tissue culture plates as described. Once cultures were incubated in medium 199 with 0.2% serum for 24 hours, cultures were either infected with AdUIIR as described or were just transfected. […] Cardiomyocyte cultures were harvested 24-72 hours post treatment (per sample) and luciferase activity was determined by luminometry (Model TD 20/20 Luminometer, Turner Designs, Sunnyvale, Calif.) using a commercially available kit (Luciferase Substrate, Promega, Madison, Wis.).

[4] = tested on: UIIR; assay: UIIR expression in cardiomyocytes treated with hypertrophic agonists (RT-PCR, western blot); format: cell-based, rat; settings: for UIIR mRNA expression: 10 μM PE or 100 nM AngII for 24 hours, RT-PCR; for UIIR protein expression: PE or AngII, western blot
Protocol: Cardiomyocytes were cultured in medium containing 0.2% FBS and either PE (10 μM) or AngII (100 nM) for 48 hours. Total RNA was isolated and reverse transcribed. cDNA was used as template to amplify UIIR. […] Cardiomyocytes were cultured in medium containing 0.2% FBS and either PE (10 μM) or AngII (100 nM) for 48 hours. Total protein was isolated and UIIR detected by western blot.
Expression of UIIR in myocytes treated with hypertrophic agonists. In order to validate the array data, we designed PCR primers to amplify UIIR. Cardiomyocyte cultures were treated with 10 μM PE or 100 nM AngII for 24 hours and total RNA was extracted following the Trizol protocol (Invitrogen). Total RNA was then used for template for reverse transcription. The cDNA generated from the RT reaction was then used as template to amplify UIIR and GAPDH as control.
To this end, we stimulated cardiomyocyte cultures with AngII and PE as before and isolated total protein. The total protein was resolved by PAGE (12% acrylamide), transferred to nitrocellulose, and blotted for UIIR using a specific antibody.

[5] = tested on: ANF, BNP, αMHC and SkA mRNA; assay: Semi-quantitative RT-PCR of hypertrophy marker genes in cardiomyocytes; format: cell-based, rat; settings: AdUIIR-infected cardiomyocytes; UII 100 nM, STO-609 250 ng/mL, 48 h
Protocol: as §1
Reverse Transcription and Semi-quantitative PCR—Cardiomyocytes were cultured in 100-mm dishes at a density of 1×10^5 cells/cm^2. 24 h post-plating, cells were treated as indicated. Following treatment, total RNA was isolated with TRIzol® reagent (Invitrogen) cDNA was synthesized using Super-Script™III (Invitrogen) per the manufacturer's instructions. Semi-quantitative PCR was then performed using gene-specific primers for UIIR, hypertrophy marker genes and glyceraldehyde-3-phosphate dehydrogenase (GAPDH) (Integrated DNA Technologies). Sequences of gene-specific primers were as follows: for UIIR, sense 5′-[…]-3′ (SEQ ID NO: 1) and antisense 5′-[…]-3′ (SEQ ID NO: 2); for ANF, sense 5′-[…]-3′ (SEQ ID NO: 3) and antisense 5′-[…]-3′ (SEQ ID NO: 4); for BNP sense, 5′-[…]-3′ (SEQ ID NO: 5) and anti-sense 5′-[…]-3′ (SEQ ID NO: 6); for αMHC sense, 5′-[…]-3′ (SEQ ID NO: 7) and antisense 5′-[…]-3′ (SEQ ID NO: 8); for SkA sense, 5′-[…]-3′ (SEQ ID NO: 9) and antisense 5′-[…]-3′ (SEQ ID NO: 10); and for GAPDH sense, 5′-[…]-3′ (SEQ ID NO: 11) and antisense 5′-[…]-3′ (SEQ ID NO: 12).

[6] = tested on: CaMKI; assay: Western blot of CaMKI phosphorylation (phospho-Thr178) in cardiomyocytes; format: cell-based, rat; settings: AdUIIR-infected cardiomyocytes; UII with STO-609 for 2 or 5 min
Protocol: as §1
(§2) Western Blot Analysis and Immunoprecipitations. Cardiomyocytes were cultured in 100-mm dishes as described in the previous section. 24 h post-plating, cells were treated with UII and various pharmacological inhibitors as indicated. Following treatment, cells were lysed, and the relative abundance of UIIR, active p38 and ERK1/2, and active PKD was determined with commercially-available antibodies (Alpha Diagnostic, and Cell Signaling Technologies, Inc., respectively). The antibody for CaMKI was obtained from T. Soderling (Vollum Institute, Oregon Health Sciences University, Portland Oreg.).
UII stimulation results in the activation of CaMKI. […] One of the major downstream effectors of CaMKK is CaMKI. In addition to calcium/calmodulin, CaMKI requires phosphorylation by CaMKK to be active. To determine whether UII activates CaMKI, AdUIIR-infected cardiomyocyte cultures were treated with UII for various times up to 60 min, and whole cell lysates were collected and the phosphorylation status of CaMKI was measured by Western blot analysis by using an antibody that recognizes the active form of CaMKI (phospho-Thr178). […] CaMKI remained phosphorylated and active through 60 min of UII stimulation. Thus, UII activates CaMKI in cardiomyocytes.

[7] = tested on: p38 and ERK1/2; assay: Western blot of p38 and ERK1/2 phosphorylation in cardiomyocytes; format: cell-based, rat; settings: AdUIIR-infected cardiomyocytes; UII with STO-609 for 5 min
Protocol: as §1, §2
UII-dependent activation of p38 and ERK1/2 requires CaMKK. MAP kinases play an important role in mediating intracellular signaling. They are involved in cellular processes such as hypertrophy (7-10, 53, 54). More interesting, cross talk has been reported between the CaMKs and the MAPKs in neurons (11). There are three distinct families of MAP kinases (ERKs, p38s, and JNKs)(55). […] Next, whether UII stimulation of the MAP kinases was dependent on CaMKK was determined. AdUIIR-infected cardiomyocyte cultures were treated with UII for various times up to 60 min, and the phosphorylation status of p38 and ERK MAPKs were measured by Western blot analysis using antibodies that detect the active (phosphorylated) forms of these kinases.

[8] = tested on: PKD; assay: Western blot of PKD phosphorylation (phospho-Ser744/748) in cardiomyocytes; format: cell-based, rat; settings: AdUIIR-infected cardiomyocytes; UII with STO-609 for 2 or 5 min
Protocol: as §1, §2
UII activates PKD in a CaMKK dependent manner. A parallel pathway involving PKD phosphorylatea HDACs resulting in their 14-3-3-dependent translocation […] (19). […] Next, it was determined whether UII stimulation could activate PKD which would account for the UII-induced HDAC5 translocation […] possibly working in conjunction with CaMKI. To determine whether UII activates PKD, AdUIIR-infected cardiomyocyte cultures were treated with UII for various times up to 60 min, and whole cell lysates were collected and the phosphorylation status of PKD was measured by Western blot analysis by using an antibody that recognizes the active form of PKD (phospho-Ser744/748). […]

[9] = tested on: ERK1/2; assay: Western blot of AngII or Et-1 stimulated ERK1/2 phosphorylation in cardiomyocytes; format: cell-based, rat; settings: AngII 100 nM or Et-1 10 nM for 10 min; STO-609 250 ng/mL
Protocol: (§3) Whole cell lysates were subjected to Western blotting to determine the relative change in phosphorylation of ERK1/2 (FIG. 7A) or PKD (FIG. 7B). Western Blot Analysis and Immunoprecipitations. […] Following treatment, cells were lysed, and the relative abundance of UIIR, active p38 and ERK1/2, and active PKD was determined with commercially-available antibodies (Alpha Diagnostic, and Cell Signaling Technologies, Inc., respectively). The antibody for CaMKI was obtained from T. Soderling (Vollum Institute, Oregon Health Sciences University, Portland Oreg.).

[10] = tested on: PKD; assay: Western blot of AngII or Et-1 stimulated PKD phosphorylation in cardiomyocytes; format: cell-based, rat; settings: AngII 100 nM or Et-1 10 nM for 10 min; STO-609 250 ng/mL
Protocol: as §3

[11] = target: CaMKKa (Rattus norvegicus, UniProt P97756); settings: cited from earlier work
Sequence of CaMKKa (P97756 whole entry): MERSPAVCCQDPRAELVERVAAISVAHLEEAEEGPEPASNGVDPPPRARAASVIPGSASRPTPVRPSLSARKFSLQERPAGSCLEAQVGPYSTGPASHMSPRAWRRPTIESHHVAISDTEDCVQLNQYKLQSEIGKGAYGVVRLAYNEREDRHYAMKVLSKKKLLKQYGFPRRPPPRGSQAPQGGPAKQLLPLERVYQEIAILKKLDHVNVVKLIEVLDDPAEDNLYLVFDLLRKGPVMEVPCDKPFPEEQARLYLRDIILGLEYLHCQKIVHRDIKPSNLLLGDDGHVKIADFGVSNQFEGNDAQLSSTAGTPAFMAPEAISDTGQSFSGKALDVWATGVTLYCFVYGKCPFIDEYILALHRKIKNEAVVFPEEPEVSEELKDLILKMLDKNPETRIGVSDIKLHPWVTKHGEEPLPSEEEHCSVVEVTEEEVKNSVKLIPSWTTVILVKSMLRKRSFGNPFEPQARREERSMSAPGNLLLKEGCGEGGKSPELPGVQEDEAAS

[12] = target: CaM-KI (Homo sapiens, UniProt Q14012); settings: cited from earlier work
Sequence of CaM-KI (Q14012 whole entry, species assumed): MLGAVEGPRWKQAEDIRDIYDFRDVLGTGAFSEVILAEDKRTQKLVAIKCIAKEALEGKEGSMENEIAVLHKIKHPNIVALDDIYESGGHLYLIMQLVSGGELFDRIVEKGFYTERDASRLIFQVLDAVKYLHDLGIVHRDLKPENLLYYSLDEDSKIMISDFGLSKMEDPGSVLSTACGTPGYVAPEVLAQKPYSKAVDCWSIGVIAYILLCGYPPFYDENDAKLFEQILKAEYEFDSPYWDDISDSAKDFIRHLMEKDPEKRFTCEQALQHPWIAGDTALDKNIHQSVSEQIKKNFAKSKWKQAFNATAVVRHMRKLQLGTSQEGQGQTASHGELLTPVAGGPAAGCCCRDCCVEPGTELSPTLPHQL

[13] = target: T1, CaM-KIV (Homo sapiens, UniProt Q16566); settings: cited from earlier work
T1 sequence (Q16566 1-473): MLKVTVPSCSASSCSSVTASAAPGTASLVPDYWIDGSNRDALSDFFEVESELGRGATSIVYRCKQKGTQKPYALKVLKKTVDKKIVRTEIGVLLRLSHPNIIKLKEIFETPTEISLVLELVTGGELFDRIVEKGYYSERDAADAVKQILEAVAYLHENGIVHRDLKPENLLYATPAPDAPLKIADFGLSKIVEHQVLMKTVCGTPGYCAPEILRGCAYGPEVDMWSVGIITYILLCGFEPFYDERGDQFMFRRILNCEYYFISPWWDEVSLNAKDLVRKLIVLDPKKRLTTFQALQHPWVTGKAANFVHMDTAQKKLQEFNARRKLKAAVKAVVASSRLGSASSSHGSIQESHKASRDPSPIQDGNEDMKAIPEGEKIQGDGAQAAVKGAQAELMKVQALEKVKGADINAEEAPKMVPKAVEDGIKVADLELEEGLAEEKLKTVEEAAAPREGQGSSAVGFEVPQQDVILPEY

[14] = tested on: PKA; settings: cited from earlier work
[15] = tested on: PKC; settings: cited from earlier work
[16] = target: p42 MAP kinase (Homo sapiens, UniProt P28482); settings: cited from earlier work
Sequence of p42 MAP kinase (P28482 whole entry): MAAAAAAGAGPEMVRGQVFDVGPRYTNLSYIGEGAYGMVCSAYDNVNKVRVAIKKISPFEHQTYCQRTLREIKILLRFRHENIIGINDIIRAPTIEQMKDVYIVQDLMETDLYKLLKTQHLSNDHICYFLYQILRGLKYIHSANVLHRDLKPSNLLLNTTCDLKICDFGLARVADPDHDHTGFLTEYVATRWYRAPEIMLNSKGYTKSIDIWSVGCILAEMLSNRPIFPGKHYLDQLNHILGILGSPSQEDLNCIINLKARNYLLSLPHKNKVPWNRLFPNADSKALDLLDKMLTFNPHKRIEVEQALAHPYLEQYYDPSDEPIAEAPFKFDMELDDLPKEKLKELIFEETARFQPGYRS

Row | Compound | effect of inhibitor on UII activation of ANF, SkA and MEF2 reporter luciferase activity [1] | effect of inhibitor on UII-induced association of HDAC5 with 14-3-3β [2] | effect of inhibitor on CaMKI activation of ANF, SkA and MEF2 reporter luciferase activity [3] | UIIR mRNA expression [4] | UIIR protein expression [4] | further results
1 | N#CC(=C(/N)Sc1ccccc1N)/C(C#N)=C(\N)Sc1ccccc1N [U0126] | completely blocked | loss of UII-induced association of HDAC5 with 14-3-3β; also recorded: reduced UII-dependent association with 14-3-3β | completely blocked | – | – | –
2 | CNC[C@H](O)c1cccc(O)c1 [PE, phenylephrine] | – | – | – | up-regulated the UIIR messenger RNA | up-regulation of UIIR | –
3 | O=C(O)c1ccc2c3c1cccc3c(=O)n1c3ccccc3nc21 [STO-609, 7-H-Benz[de]benzimidazo[2,1-a]isoquinoline-7-one-3-carboxylic acid] | completely blocked; also recorded: UII was incapable of stimulating any of the reporters | loss of UII-induced association of HDAC5 with 14-3-3β; also recorded: decreased association of HDAC5 with 14-3-3β | – | – | – | effect of inhibitor on UII-stimulated hypertrophy marker gene mRNA expression (ANF, BNP, αMHC, SkA) [5]: UII was unable to stimulate hypertrophy marker gene expression over control; also recorded: UII was unable to stimulate the expression of ANF, BNP, αMHC or SkA; effect of inhibitor on UII-dependent activation (phosphorylation) of CaMKI [6]: UII was unable to stimulate CaMKI; also recorded: inhibited; effect of inhibitor on UII-dependent phosphorylation of p38 and ERK1/2 [7]: UII was unable to stimulate p38 or ERK1/2; effect of inhibitor on UII-dependent phosphorylation of PKD [8]: UII was unable to stimulate PKD; effect of inhibitor on AngII and Et-1 activation of ERK1/2 [9]: CaMKK is required for AngII and Et-1 activation of ERK1/2 and PKD; effect of inhibitor on AngII and Et-1 activation of PKD [10]: CaMKK is required for AngII and Et-1 activation of ERK1/2 and PKD; IC50 [11]: 0.382 µM; IC50 [12]: > 31.8 µM; IC50 [13]: > 31.8 µM; IC50 for PKA [14]: > 10 µg/mL; IC50 for PKC [15]: > 10 µg/mL; IC50 [16]: > 31.8 µM
4 | C[S+]([O-])c1ccc(-c2nc(-c3ccncc3)c(-c3ccc(F)cc3)[nH]2)cc1 (stereo not drawn) [SB203580] | completely blocked | no effect | completely blocked | – | – | –
5 | angiotensin II (DRVYIHPF; Angiotensin-2; UniProt P01019 25-32, looked up) [AngII, humoral hypertrophic agonist acting on the Gq-coupled angiotensin II receptor] | – | – | – | up-regulated the UIIR messenger RNA | up-regulation of UIIR | –
